Results: US9974761B2, “Medications for deposition on biological surfaces” (The Procter & Gamble Company, priority 2014, dated 2018)
Each block holds one compound with its values, some of them ahead of it.

Key:
human TRPA1 = target: T1, human TRPA1 (Homo sapiens, UniProt O75762, K186N/R3C/R58T); assay: TRPA1 Protocol-FLIPR Assay (intracellular Ca2+); assay type: cell-based
T1 construct: expressed in transfected cells
Description: To determine whether TRPA1 is activated, the intracellular calcium ion (Ca^2+) level from transfected cells with the TRPA1 receptor sequence (SEQ ID NO: 2) was measured. HEK-293 cells stably transfected with human TRPA1 were grown in 15 ml growth medium (high glucose DMEM (Dulbecco's Modification of Eagle's Medium) supplemented with 10% FBS (fetal bovine serum), 100 μg/ml penicillin/streptomycin, 100 μg/ml G418) in a 75cm^2 flask for 3 days at 37° C. in a mammalian cell culture incubator set at 5% CO2. Cells were detached with addition of 10 ml of PBS (phosphate buffered saline) by hand shaking gently and transferred to a 50 ml tube and centrifuged at 850 rpm for 3 minutes to remove PBS. After centrifugation, a pellet of cells was formed in the bottom of the tube separating them from the supernatant solution. The supernatant was discarded and the cell pellet suspended in 1 ml of fresh growth medium to which 5 μl (12.5 μg) of Fluo-4 AM (Molecular Probes, Inc.) calcium indicator was added and incubated for 30 minutes with gentle shaking. At the end of the 30 minutes, 45 ml of assay buffer (1× HBSS (Hank's Balanced Salt Solution), 20 mM HEPES (4-(2-Hydroxyethyl)-1-piperazineethanesulfonic acid)) was added to wash the cells and the resulting combination was then centrifuged at 850 rpm for 3 minutes to remove excess buffer and Fluo-4 AM calcium indicator.
The pelleted cells were re-suspended in 10 ml assay buffer and 90 μll aliquots (˜50,000 cells) per well delivered to a 96-well assay was placed into a fluorometric imaging plate reader (FLIPR TETRA from Molecular Devices) and basal fluorescence recorded (excitation wave length 488 nm and emission wave length 510 nm). Then 20 μl of the test compound being tested was added and fluorescence recorded (TABLES 2 and 3).
To determine if a compound was an agonist the direct effect of a test compound was determined. If any increase in fluorescence over background was noted, then the compound was considered an agonist. The agonist activity was expressed relative to that observed with a benchmark agonist such as 50 μm allyl isothiocyanate for TRPAL

human TRPV1 = target: T2, human TRPV1 (Homo sapiens, UniProt Q8NER1, M315I/T336M); assay: TRPV1 Protocol-FLIPR Assay (intracellular Ca2+); assay type: cell-based
T2 construct: expressed in transfected cells
Description: To determine whether TRPV1 was activated, the intracellular calcium ion (Ca^+2) levels from cells transfected with the TRPV1 receptor sequence (SEQ ID NO: 1) were measured. […] Cells were detached with addition of 10 ml of PBS (phosphate buffered saline) by gentle hand shaking. Cells were transferred to a 50 ml tube and centrifuged at 850 rpm for 3 minutes to remove PBS. After centrifugation, a pellet of cells formed in the bottom of the tube separating them from the supernatant solution. The supernatant was discarded and the cell pellet suspended in 1 ml of fresh growth medium to which 5 μl (12.5 μg) of Fluo-4 AM (Molecular Probes, Inc., Eugene, Oreg.) calcium indicator was added and incubated for 30 minutes with gentle shaking. […] The pelleted cells were re-suspended in 10 ml assay buffer and 90 μl aliquots (˜50,000 cells) per well delivered to a 96-well assay plate was placed into a fluorometric imaging plate reader (FLIPR TETRA from Molecular Devices) and basal fluorescence recorded (excitation wave length 488 nm and emission wave length 510 nm). Then 20 μl of a test compound-being tested as a TRPV1 receptor agonist was added and fluorescence recorded. The observed value with compound pretreated cells was compared with buffer control; the difference between the two indicating a measure of effect of the test compound on the agonist (TABLES 2 and 3). If any increase in fluorescence over background was noted, then the compound was considered an agonist.

[1] = concentration where the cooling effect could be clearly recognized; Emberger and Hopp 1987; cited from earlier work
[2] = Sensation reported by panelists; assay type: in vivo; details: perceived sensation, in words
human TRPM8 [3] = target: T3, human TRPM8 (UniProt Q8R4D5); assay: TRPM8 Protocol-FLIPR Assay (intracellular Ca2+); assay type: cell-based
T3 construct: Receptor Activity TRPM8; Receptor Activity TRPM8; other: test compound at 0.001%; relative to WS5 control (30 microMolar); HEK 293 cells; other: test compound at 0.004%; other: test compound at 5.2E−5%; relative to WS5 control
Description: (§1) To determine whether TRPM8 is activated, the intracellular calcium ion (Ca^2+) level was measured from transfected cells with the TRPM8 receptor sequence (SEQ ID NO: 3). HEK-293 (human embryonic kidney) cells stably transfected with human TRPM8 were grown in 15 ml growth medium (high glucose DMEM (Dulbecco's Modification of Eagle's Medium) supplemented with 10% FBS (fetal bovine serum), 100 ug/ml penicillin/streptomycin, 5 μg/ml blasticindin, and 100 μg/ml zeocin) in a 75 cm^2 flask for 3 days at 37° C. in a mammalian cell culture incubator set at 5% CO2 Cells were detached with addition of 2 ml of trypsin-EDTA buffer (GIBCO® 25200, Invitrogen, Grand Island, N.Y.) for about 2-3 min. Trypsin was inactivated by addition of 8 ml growth medium. Cells were transferred to a 50 ml tube and centrifuged at 850 rpm for 3 minutes to remove medium. After centrifugation, a pellet of cells was formed in the bottom of the tube separating them from the supernatant solution. The supernatant was discarded and the cell pellet was suspended in 1 ml of fresh growth medium to which 5 μl (12.5 μg) of Fluo-4 AM (Molecular Probes, Inc., Eugene, Oreg.) calcium indicator was added and incubated for 30 min with gentle shaking. Fluo-4 AM is a fluorescent dye used for quantifying cellular Ca^2+ concentrations in the 100 nM to 1 microM range. At the end of 30 minutes, 45 ml of assay buffer (1× HBSS (Hank's Balanced Salt Solution), 20 mM HEPES (4-(2-Hydroxyethyl)-1-piperazineethanesulfonic acid)) was added to wash cells and the resulting mixture was then centrifuged at 850 rpm for 3 minutes to remove excess buffer and Fluo-4 AM calcium indicator.
(§2) The pelleted cells were re-suspended in 10 ml assay buffer and 90 μl aliquots (˜50,000 cells) per well delivered to a 96-well assay plate containing 10 μl of test compounds (1 mM in assay buffer, […]) or buffer control and incubated at room temperature for 30 minutes. After 30 minutes, a plate was placed into a fluorometric imaging plate reader (FLIPR384 from Molecular Devices, Sunnyvale, Calif.) and basal fluorescence recorded (excitation wave length 488 nm and emission wave length 510 nm). Then 20 μl of […] of TRPM8 agonist WS5 coolant in the assay buffer was added and fluorescence recorded. For determining the direct effect of test compounds on TRPM8, fluorescence was measured immediately after addition of each compound (TABLES 2 and 3). Additional discussion of the FLIPR method can be found in Smart et al., Characterization using FLIPR of human vanilloid VR1 receptor pharmacology, European Journal of Pharmacology 417, 51-58 (2001) and Liu et al., Development and validation of a platelet calcium flux assay using a fluorescent imaging plate reader, Analytical Biochemistry 357, 216-224 (2006).
(§3) TRPM8 activation was determined by measuring intracellular calcium ion (Ca^2+) level from transfected cells with the TRPM8 receptor gene, as described in EXAMPLE 1, the results of which are shown in TABLES 4 and 5.

human TRPM8 [4] = assay: TRPM8 Protocol-FLIPR Assay (intracellular Ca2+); assay type: cell-based; details: dose 30 uM
Description: as §1, §2, §3

[5] = test compound at 5.2E−5%, relative to Capsaicin control (350 nanoMolar), HEK 293 cells
[6] = test compound at 5.2E−5%, relative to Allyl Isothiocyanate control (50 microMolar), HEK 293 cells
[7] = test compound at 0.02%, relative to Capsaicin control (350 nanoMolar), HEK 293 cells
[8] = test compound at 0.02%, relative to Allyl Isothiocyanate control (50 microMolar), HEK 293 cells

T1 sequence (O75762 whole entry R3C/R58T/K186N): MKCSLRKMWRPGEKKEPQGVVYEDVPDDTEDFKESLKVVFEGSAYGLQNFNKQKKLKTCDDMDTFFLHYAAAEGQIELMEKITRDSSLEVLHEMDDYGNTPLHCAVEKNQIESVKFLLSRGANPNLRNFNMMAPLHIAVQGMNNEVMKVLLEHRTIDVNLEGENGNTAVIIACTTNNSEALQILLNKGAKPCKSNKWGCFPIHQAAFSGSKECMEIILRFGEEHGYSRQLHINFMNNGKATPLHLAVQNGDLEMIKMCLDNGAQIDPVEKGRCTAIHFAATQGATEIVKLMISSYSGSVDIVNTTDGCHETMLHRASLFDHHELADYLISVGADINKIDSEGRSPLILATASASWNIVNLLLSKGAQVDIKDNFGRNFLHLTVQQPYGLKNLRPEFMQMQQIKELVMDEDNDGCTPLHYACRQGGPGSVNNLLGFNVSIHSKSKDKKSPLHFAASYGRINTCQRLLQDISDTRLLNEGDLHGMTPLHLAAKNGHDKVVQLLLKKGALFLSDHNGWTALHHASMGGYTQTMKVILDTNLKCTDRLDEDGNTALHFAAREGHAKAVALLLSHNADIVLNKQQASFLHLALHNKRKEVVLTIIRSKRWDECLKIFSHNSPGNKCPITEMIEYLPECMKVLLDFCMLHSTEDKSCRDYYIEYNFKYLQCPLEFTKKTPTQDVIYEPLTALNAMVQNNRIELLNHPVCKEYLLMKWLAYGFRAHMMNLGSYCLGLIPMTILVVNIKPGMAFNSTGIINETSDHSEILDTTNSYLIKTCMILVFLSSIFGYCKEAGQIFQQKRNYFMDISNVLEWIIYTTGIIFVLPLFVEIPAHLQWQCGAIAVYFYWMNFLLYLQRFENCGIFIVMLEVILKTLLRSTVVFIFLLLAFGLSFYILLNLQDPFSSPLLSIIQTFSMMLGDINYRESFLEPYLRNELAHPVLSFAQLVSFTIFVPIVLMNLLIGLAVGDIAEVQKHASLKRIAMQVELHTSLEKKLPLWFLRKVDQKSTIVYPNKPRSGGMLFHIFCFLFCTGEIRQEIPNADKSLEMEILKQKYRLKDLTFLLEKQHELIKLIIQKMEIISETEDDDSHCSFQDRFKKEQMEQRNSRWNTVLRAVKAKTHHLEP
T2 sequence (Q8NER1 whole entry M315I/T336M): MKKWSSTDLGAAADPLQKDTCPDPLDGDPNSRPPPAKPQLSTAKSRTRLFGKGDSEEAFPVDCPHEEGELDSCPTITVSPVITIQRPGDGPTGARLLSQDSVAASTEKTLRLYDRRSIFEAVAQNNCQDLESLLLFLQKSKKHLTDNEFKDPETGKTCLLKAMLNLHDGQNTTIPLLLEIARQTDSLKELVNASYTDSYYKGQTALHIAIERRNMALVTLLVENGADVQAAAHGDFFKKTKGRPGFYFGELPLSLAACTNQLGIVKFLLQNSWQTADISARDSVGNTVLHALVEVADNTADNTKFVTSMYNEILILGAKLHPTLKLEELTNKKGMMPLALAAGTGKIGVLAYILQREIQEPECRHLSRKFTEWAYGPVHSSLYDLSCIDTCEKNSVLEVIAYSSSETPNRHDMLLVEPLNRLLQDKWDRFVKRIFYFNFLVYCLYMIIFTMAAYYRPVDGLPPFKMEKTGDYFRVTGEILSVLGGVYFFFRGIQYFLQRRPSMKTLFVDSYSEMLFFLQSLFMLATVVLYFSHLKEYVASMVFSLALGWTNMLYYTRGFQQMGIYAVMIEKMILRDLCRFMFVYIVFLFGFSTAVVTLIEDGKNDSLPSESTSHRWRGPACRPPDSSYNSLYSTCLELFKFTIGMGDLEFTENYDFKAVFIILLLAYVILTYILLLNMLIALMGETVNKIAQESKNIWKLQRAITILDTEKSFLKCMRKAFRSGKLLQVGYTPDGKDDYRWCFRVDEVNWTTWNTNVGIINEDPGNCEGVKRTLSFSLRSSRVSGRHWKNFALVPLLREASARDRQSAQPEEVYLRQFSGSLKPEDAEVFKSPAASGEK

Receptor Activity TRPV1 (human TRPV1; [7]): 92.07%
Receptor Activity TRPA1 (human TRPA1; [8]): 198.79%
SMILES: CSc1ccc(NC(=O)[C@@H]2C[C@H](C)CC[C@H]2C(C)C)c(NCCN)c1 [Compound 773, Cyclohexane-carboxamide N-[2-[(2-aminoethyl)amino]-4-(methylthio)phenyl]-5-methyl-2-(1-methylethyl)-(1R,2S,5R)-*]
sensation (cooling, warming, burning) [2]: warming

Receptor Activity TRPV1 (human TRPV1; [7]): 60.5%
Receptor Activity TRPA1 (human TRPA1; [8]): 173.88%
SMILES: CC(C)[C@@H]1CC[C@@H](C)C[C@H]1C(=O)Nc1ccc2ccccc2c1OCCN [Compound 777, Cyclohexane-carboxamide, N-[1-(2-aminoethoxy)-2-naphthalenyl]-5-methyl-2-(1-methylethyl)-, (1R,2S,5R)-*]
sensation (cooling, warming, burning) [2]: burning
sensation (cooling, warming, burning) ([2]; listed as test compound 777): burning sensation

Receptor Activity TRPM8 (human TRPM8 [3]; control agonist at 30 microMolar (reference = 100%)): 100%
TRPM8 Time Course Activity 50 sec % of WS5 (human TRPM8 [3]; dose 30 uM, 50 sec): 100.0%
TRPM8 Time Course Activity 50 sec (human TRPM8 [3]; dose 30 uM, fluorescence at 50 sec): 10059.7
SMILES: CCOC(=O)CNC(=O)C1CC(C)CCC1C(C)C (stereo not shown) [WS5, N-ethoxycarbonylmethyl-ρ-menthan-3-carboxamide, reference compound]
TRPM8 Time Course Activity 50 sec % of WS5 (human TRPM8 [4]; 50 sec): 100.0%
TRPM8 Time Course Activity 3 min % of WS5 (human TRPM8 [4]; 3 min): 100.0%
TRPM8 Time Course Activity 5 min % of WS5 (human TRPM8 [4]; 5 min): 100.0%
TRPM8 Time Course Activity 10 min % of WS5 (human TRPM8 [4]; 10 min): 100.0%
TRPM8 Time Course Activity 50 sec (human TRPM8 [4]; fluorescence at 50 sec): 10059.7
TRPM8 Time Course Activity 3 min (human TRPM8 [4]; fluorescence at 3 min): 9449.3
TRPM8 Time Course Activity 5 min (human TRPM8 [4]; fluorescence at 5 min): 9468.0
TRPM8 Time Course Activity 10 min (human TRPM8 [4]; fluorescence at 10 min): 9576.0

Continued, compound first:

SMILES: C=CCN=C=S [Allyl Isothiocyanate, reference compound]
Receptor Activity TRPA1 (human TRPA1; control agonist at 50 microMolar (reference = 100%)): 100%

SMILES: COc1cc(CNC(=O)CCCC/C=C/C(C)C)ccc1O [Capsaicin, reference compound]
Receptor Activity TRPV1 (human TRPV1; control agonist at 350 nanoMolar (reference = 100%)): 100%

SMILES: CC(C)[C@@H]1CC[C@@H](C)C[C@@H]1O [Compound 1-neomenthol, 1-neomenthol]
cooling threshold [1]: about 3,000 ppb

SMILES: CC(C)[C@@H]1CC[C@@H](C)C[C@H]1C(=O)NCC(NC(=O)[C@@H](C)N)c1ccccc1 (stereo partly drawn) [Compound 28, Cyclohexane-carboxamide, N-[2-[[(2R)-2-amino-1-oxopropyl]amino]-2-phenylethyl]-5-methyl-2-(1-methylethyl)-, (1R,2S,5R)-*]
sensation (cooling, warming, burning) [2]: cooling sensations
Receptor Activity TRPV1 (human TRPV1; [5]): 104.50%
Receptor Activity TRPA1 (human TRPA1; [6]): 242.50%
mass efficiency relative to N-(4-cyanomethylphenyl)-p-menthanecarboxamide (human TRPM8 [3]; at a single concentration, TRPM8 activity vs WS5): 100 ×
Receptor Activity TRPM8 (human TRPM8 [3]; test compound at 5.2E−6%, relative to WS5 control (30 microMolar), HEK 293 cells): 130.42%
Receptor Activity TRPM8 (human TRPM8 [3]; test compound at 5.2E−6%, relative to WS5 control (30 microMolar), HEK 293 cells, listed as compound 28): 130%

SMILES: CC(C)[C@@H]1CC[C@@H](C)C[C@H]1C(=O)NCC(OCCN)c1ccccc1 (stereo partly drawn) [Compound 30, Cyclohexane-carboxamide, N-[2-(2-aminoethoxy)-2-phenylethyl]-5-methyl-2-(1-methylethyl)-, (1R,2S,5R)-*]
sensation (cooling, warming, burning) [2]: lack of sensation, cooling or warming
Receptor Activity TRPV1 (human TRPV1; [5]): 16.24%
Receptor Activity TRPA1 (human TRPA1; [6]): 38.18%
Receptor Activity TRPM8 (human TRPM8 [3]; test compound at 5.2E−5%, relative to WS5 control (30 microMolar), HEK 293 cells): 109.70%

SMILES: CC(C)[C@@H]1CC[C@@H](C)C[C@H]1C(=O)Nc1ccc(CC#N)cc1 [Compound 180, Cyclohexane-carboxamide, N-[4-(cyanomethyl)phenyl]-5-methyl-2-(1-methylethyl)-, (1R,2S,5R)-, reference compound]
Receptor Activity TRPV1 (human TRPV1; test compound at 0.001%, relative to Capsaicin control (350 nanoMolar), HEK 293 cells): 0.01%
Receptor Activity TRPA1 (human TRPA1; test compound at 0.001%, relative to Allyl Isothiocyanate control (50 microMolar), HEK 293 cells): 68.02%
Receptor Activity TRPM8 (human TRPM8 [3]; test compound at 0.001%, relative to WS5 control (30 microMolar), HEK 293 cells): 108.80%
Receptor Activity TRPM8 (human TRPM8 [3]; test compound at 0.001%, relative to WS5 control (30 microMolar), HEK 293 cells, listed as N-(4-cyanomethylphenyl)-p-menthanecarboxamide): 109%

SMILES: CC(C)[C@@H]1CC[C@@H](C)C[C@H]1O [L-menthol]
cooling threshold [1]: about 800 ppb

SMILES: CC(C)[C@@H]1CC[C@@H](C)C[C@@H]1O [d-neomenthol]
cooling threshold [1]: about 25,000 ppb
